Reference: ChEMBL document CHEMBL1148982, “Novel cytotoxic thiodiketopiperazine derivatives from a Tilachlidium sp” (2004)

Tested on: P388
Assay: Cytotoxicity against mouse P388 cells after 1 to 11 days by MTT assay
Assay type: functional
Settings: read-out: ID50 (the source's name)

SMILES | IC50
CN1C(=O)[C@]23SS[C@]1(CO)C(=O)N2[C@H]1Nc2ccccc2[C@@]1(c1c[nH]c2ccccc12)[C@@H]3O [T988 C] | 560 nM
CS[C@@]1(CO)C(=O)N2[C@H]3Nc4ccccc4[C@@]3(c3c[nH]c4ccccc34)[C@H](O)[C@]2(SC)C(=O)N1C [T988 B] | 2180 nM
CN1C(=O)[C@]23SSS[C@]1(CO)C(=O)N2[C@H]1Nc2ccccc2[C@@]1(c1c[nH]c2ccccc12)[C@@H]3O | 250 nM
